Reference: patent publication US20260364213A1, “RADIOLABELED COMPOUNDS OF TRIMETHOPRIM AND USES THEREOF” (THE TRUSTEES OF THE UNIVERSITY OF PENNSYLVANIA, priority 2023, published 2026)
“Also recorded” adds a separate entry of the source.

Experiments:
Serum stability in FBS = assay type: in vitro ADME; conditions: FBS at 37 °C, 72 hours, radio-TLC
Description: In vitro serum stability of was performed by adding the [^131I]mI-TMP (50 μL, 1.85 MBq) to fetal bovine serum (500 μL). The mixture was then incubated in a ThermoMixer (800 rpm) at 37 °C, and deiodination was analyzed by radio-TLC (10% NH40Ac:MeOH=3:7) at 0, 24, and 72 h. In this condition, free I-131 moved to solvent front whereas intact [^131I]I-TMP remained at the origin.

eDHFR = target: T1, eDHFR (Escherichia coli, UniProt P0ABQ4); assay: Uptake and washout in HCT116-eDHFR-Luc vs WT cells; assay type: cell-based; set-up: in CAR T cells fused to C-terminus of CD3zeta of FAP-CAR
T1 sequence (P0ABQ4 1-159): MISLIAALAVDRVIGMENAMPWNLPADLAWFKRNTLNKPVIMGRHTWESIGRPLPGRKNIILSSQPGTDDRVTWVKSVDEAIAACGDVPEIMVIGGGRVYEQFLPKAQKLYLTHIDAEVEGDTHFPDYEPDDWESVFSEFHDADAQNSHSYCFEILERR
Description: The cells were sampled at 1 h, 2 h and 4 h. […] Similarly, the process cells was repeated for 2 h and 4 h samples.
Next, the therapeutic effect of [^131/125I]mI-TMP in a human colorectal carcinoma cell line, HCT116 was analyzed. […] The specificity of radiotracer uptake was determined by blocking conditions. […] See, FIG. 10A.
A washout study was performed to know the retention of the tracer in the cells. HCT116_eDHFR cells were incubated with 0.037 MBq of compound 5b for 20 minutes. The cells were washed, resuspended and sampled at 60, 120 and 240 minutes. […] To examine the radiotherapeutic effect, the incubation period was increased and the dose […]. The cells were dosed with 3.7 MBq at 37 °C and incubated them with 2 and 4 hours. See, FIG. 10B.

HCT116-eDHFR tumors = assay: Ex vivo biodistribution in HCT116 tumor-bearing athymic nude mice; set-up: species or system human; conditions: 1.85 MBq i.v., 3 hours
Description: To evaluate the therapeutic potential [^131I]mI-TMP, sixteen (16) 8- to 12-week-old female athymic nude mice (Charles River Laboratories) were inoculated with 1×10^7 HCT116 tumor cells (eDHFR+ or WT) on the left shoulder. The mice were then divided into two groups: […] (8) mice with HCT116-eDHFR (eDHFR-positive cells) and Eight (8) mice with HCT116-WT (eDHFR-negative) cells.
Ex-vivo biodistribution studies were conducted on three (3) tumor-bearing mice from each group, while the remaining ten (10) mice were used to monitor tumor response to radiotherapy.
Three (3) hours post radiotracer injection mice were euthanized, and organs of interest were harvested for biodistribution quantification. Total radioactive uptake per organ, in counts per minute (CPM), was determined by γ-counter (Perkin Elmer).

I45 eDHFR-FLAG tumors [1] = assay: Biodistribution in I45 tumor-bearing CD1 nude mice; assay type: in vivo, human; conditions: 24 hours
Description: (§1) RLT in I45 tumors. […] Briefly, I45 eDHFR-FLAG and WT cells were xenografted into the shoulders of female athymic CD1-Foxn1nu mice. The tumors were allowed to grow for ~2 weeks. Subsequently, [^131I]I-TMP was administered intravenously and a limited biodistribution study was performed. […] To assess for cytotoxicity in I45 mesothelioma cells, I45 WT and I45 eDHFR tumors were separately xenografted into CD1-Foxn1nu mice and either [^131I]I-TMP or saline was administered to form 4 experimental cohorts (n=7).
(v) In vivo I45 eDHFR-FLAG Tumor Model. Female CD1 nu/nu mice, aged six to eight weeks, were subject to subcutaneous xenografting. Specifically, I45 eDHFR-Flag cells (1×10^6 cells/mouse) were suspended in a solution comprising equal volumes of 75 μL RPMI complete medium and 75 μL Matrigel Matrix (Corning, 354234) for implantation on the shoulder.

I45 eDHFR-FLAG tumors [2] = assay: I45 RLT, tumor growth in CD1 nude mice; assay type: in vivo, human; conditions: 18.5 MBq/mouse i.v. single dose, n=7; listed as [^131I]I-TMP
Description: as §1
[^131I]I-TMPI Administration, and Monitoring. Female CD1 nu/nu mice, aged six to eight weeks, underwent subcutaneous xenografting with 1×10^6 I45 WT and I45 eDHFR-Flag cells on the shoulder. The cells were suspended in a 1:1 volume ratio of 75 μL RPMI complete medium and 75 μL Matrigel Matrix (Corning, 354234). Both I45 WT and I45 eDHFR-Flag mice were randomly divided into two groups, with each group consisting of 7 mice. Tumors were grown for 2 weeks. […] [^131I]I-TMP, diluted in 100 μL saline, was injected into two groups containing I45 WT and I45 eDHFR-Flag xenografts on day 9 of initial tumor inoculation. The remaining two groups of I45 WT and I45 eDHFR-Flag xenografts were injected with saline. Tumor growth was monitored from two days before to 10 days after [^131I]I-TMP injection, with measurements taken every other day using calipers. […]

SMILES	serum stability, deiodination (Serum stability in FBS)	uptake of radiotracer in eDHFR+ cells in comparison to wild-type (eDHFR)	uptake in eDHFR tumors relative to WT tumors (HCT116-eDHFR tumors)	presence in eDHFR+ tumors (I45 eDHFR-FLAG tumors [1]; 18.5 MBq i.v.)	uptake in eDHFR tumors compared to WT tumors (I45 eDHFR-FLAG tumors [1])	washout from eDHFR tumors (I45 eDHFR-FLAG tumors [1])	tumor growth / in vivo cytotoxicity, I45 eDHFR tumors (I45 eDHFR-FLAG tumors [2])
COc1cc(Cc2cnc(N)nc2N)cc(I)c1OC [[^131I]mI-TMP, 5-(3-iodo-4,5-dimethoxybenzyl)pyrimidine-2,4-diamine]	without any detectable deiodination	–	–	–	–	–	–
COc1cc(Cc2cnc(N)nc2N)cc([131I])c1OC [[^131I]mI-TMP, 5-(3-iodo-4,5-dimethoxybenzyl)pyrimidine-2,4-diamine]	–	two-fold increase in uptake	twice as much	present in eDHFR+ tumors, even after 24 hours	over 1000 fold	without substantial washout	clear reduction in tumor growth; also recorded: shows in vivo cytotoxicity toward eDHFR-expressing I45 cells
